We go through 3 molecules from PMC10284832, “Cyclic di-AMP traps proton-coupled K^+ transporters of the KUP family in an inward-occluded conformation” (Nature Communications, 2023).

Series [1] concerns the target T1, KimA (Bacillus subtilis, UniProt P96589).
T1 construct: full-length membrane protein, homodimer with swapped cytosolic domains; plasmid pB24KimA, expressed in E. coli LB2003
T1 sequence (P96589 1-607): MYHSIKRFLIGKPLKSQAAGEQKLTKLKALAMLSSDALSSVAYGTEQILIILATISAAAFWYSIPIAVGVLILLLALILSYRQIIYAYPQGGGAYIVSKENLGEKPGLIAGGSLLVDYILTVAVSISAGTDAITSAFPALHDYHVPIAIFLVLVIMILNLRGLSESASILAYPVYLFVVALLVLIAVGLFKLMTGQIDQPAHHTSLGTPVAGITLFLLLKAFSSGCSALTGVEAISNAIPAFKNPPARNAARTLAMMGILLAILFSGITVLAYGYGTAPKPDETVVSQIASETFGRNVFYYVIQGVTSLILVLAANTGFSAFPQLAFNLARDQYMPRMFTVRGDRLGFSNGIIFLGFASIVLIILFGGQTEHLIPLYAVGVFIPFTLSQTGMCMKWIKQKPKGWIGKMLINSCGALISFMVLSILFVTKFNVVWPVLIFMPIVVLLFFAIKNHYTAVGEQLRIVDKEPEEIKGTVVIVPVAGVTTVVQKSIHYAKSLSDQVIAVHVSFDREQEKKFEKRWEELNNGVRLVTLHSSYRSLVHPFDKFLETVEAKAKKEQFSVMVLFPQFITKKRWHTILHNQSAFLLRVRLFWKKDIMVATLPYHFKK
The series is described as follows: whole-cell K+ uptake in E. coli LB2003 (flame AAS). It is filed as cell-based. To be noted: c-di-AMP made in the cells by co-expressed CdaA (concentration unknown) versus inactive CdaA D171N; 200 mM HEPES TEA pH 7.5; allosteric site in cytosolic domain.

The target in series [2] is T1, KimA. The series is described as follows: cryo-EM structure ([…] Å in DDM, […] Å in amphipols). To be noted: two c-di-AMP per dimer, cytosolic domain sites; co-produced with CdaA; ten-fold molar excess added in DDM. It is filed as binding.
Series [3] deals with T1, KimA. The series is described as follows: differential scanning fluorometry (CPM dye). The conditions noted are these: three-fold molar excess c-di-AMP over KimA; KimA purified from cells co-producing CdaA, in DDM; shift fits 48.1 °C (KimA without CdaA) to 54.7 °C; text calls it a further increase although the CdaA sa. It is filed as binding. (In general: Differential scanning fluorimetry follows unfolding on heating by fluorescence.)

The target in series [4] is T2, KimA (Bacillus subtilis, UniProt P96589, N237A).
T2 construct: full-length membrane protein, homodimer with swapped cytosolic domains; plasmid pB24KimA, expressed in E. coli LB2003
Kind of series: differential scanning fluorometry (CPM dye). The conditions noted are these: c-di-AMP binding to variant; method inferred from the DSF section.

The target in series [5] is T3, KimA (Bacillus subtilis, UniProt P96589, R337A).
T3 construct: full-length membrane protein, homodimer with swapped cytosolic domains; plasmid pB24KimA, expressed in E. coli LB2003
The series is described as follows: whole-cell K+ uptake in E. coli LB2003 (flame AAS). It is filed as cell-based. The conditions noted are these: c-di-AMP made in the cells by co-expressed CdaA (concentration unknown) versus inactive CdaA D171N; 200 mM HEPES TEA pH 7.5; allosteric site in cytosolic domain.

Series [6] concerns the molecule itself. Kind of series: cryo-EM structure; KimA in DDM at 4.0 mg/ml, purified after co-production with CdaA, ten-fold molar excess of c-di-AMP added after purification; 3.3 Å map with C2 symmetry.
Series [7] concerns the molecule itself. The series is described as follows: cryo-EM structure; KimA reconstituted in amphipols (PMAL C8) at 2.25 mg/ml, purified after co-expression with cdaA; 50 mM NaCl, 50 mM KCl, 20 mM Tris-HCl pH 8; 3.8 Å map with C2 symmetry.

T2 sequence (P96589 whole entry N237A, the tested form may be a part): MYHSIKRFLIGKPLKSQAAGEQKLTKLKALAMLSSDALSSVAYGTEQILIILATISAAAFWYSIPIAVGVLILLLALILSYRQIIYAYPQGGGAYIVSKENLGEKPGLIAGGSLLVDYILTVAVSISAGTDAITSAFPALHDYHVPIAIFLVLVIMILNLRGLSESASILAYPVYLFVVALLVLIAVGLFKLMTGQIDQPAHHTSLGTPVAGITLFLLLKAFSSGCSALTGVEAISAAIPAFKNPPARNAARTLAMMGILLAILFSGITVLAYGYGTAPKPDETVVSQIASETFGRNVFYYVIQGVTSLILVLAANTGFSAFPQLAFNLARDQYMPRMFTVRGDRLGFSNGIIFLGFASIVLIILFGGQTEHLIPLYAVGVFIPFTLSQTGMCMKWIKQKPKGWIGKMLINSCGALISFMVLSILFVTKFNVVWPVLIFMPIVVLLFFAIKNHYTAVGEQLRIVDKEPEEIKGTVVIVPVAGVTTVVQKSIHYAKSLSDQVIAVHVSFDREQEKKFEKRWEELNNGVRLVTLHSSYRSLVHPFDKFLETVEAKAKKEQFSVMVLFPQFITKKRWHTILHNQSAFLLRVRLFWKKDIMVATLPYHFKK
T3 sequence (P96589 whole entry R337A, the tested form may be a part): as the sequence (P96589 whole entry N237A, the tested form may be a part) above, with A237N, R337A counted along it

Turning to `Nc1ncnc2c1ncn2[C@@H]1O[C@@H]2COP(=O)(O)O[C@H]3[C@@H](O)[C@H](n4cnc5c(N)ncnc54)O[C@@H]3COP(=O)(O)O[C@H]2[C@H]1O` [c-di-AMP], the results for the “% reduction of Vmax” value in series [1] and in series [5] were ~ 64% and ~ 44%, respectively. Besides, the “cryo-EM structure (3.3 Å in DDM, 3.8 Å in amphipols)” value in series [2] is “two non-protein densities in the CDs, which were modelled as c-di-AMP”. The dTm in series [3] is 6.6 °C. In series [4], the Tm result is given as “while binding of c-di-AMP was still possible”.

B1: K+/H+ symporter KimA from B. subtilis, in DDM, with bound c-di-AMP (natural protein)
chain: MYHSIKRFLIGKPLKSQAAGEQKLTKLKALAMLSSDALSSVAYGTEQILIILATISAAAFWYSIPIAVGVLILLLALILSYRQIIYAYPQGGGAYIVSKENLGEKPGLIAGGSLLVDYILTVAVSISAGTDAITSAFPALHDYHVPIAIFLVLVIMILNLRGLSESASILAYPVYLFVVALLVLIAVGLFKLMTGQIDQPAHHTSLGTPVAGITLFLLLKAFSSGCSALTGVEAISNAIPAFKNPPARNAARTLAMMGILLAILFSGITVLAYGYGTAPKPDETVVSQIASETFGRNVFYYVIQGVTSLILVLAANTGFSAFPQLAFNLARDQYMPRMFTVRGDRLGFSNGIIFLGFASIVLIILFGGQTEHLIPLYAVGVFIPFTLSQTGMCMKWIKQKPKGWIGKMLINSCGALISFMVLSILFVTKFNVVWPVLIFMPIVVLLFFAIKNHYTAVGEQLRIVDKEPEEIKGTVVIVPVAGVTTVVQKSIHYAKSLSDQVIAVHVSFDREQEKKFEKRWEELNNGVRLVTLHSSYRSLVHPFDKFLETVEAKAKKEQFSVMVLFPQFITKKRWHTILHNQSAFLLRVRLFWKKDIMVATLPYHFKK
notes: KimA, K+/H+ symporter of the KUP family, Bacillus subtilis; expressed from pB24KimA; residues 30-606 are compared in the structures (TMD 30-462, cytosolic domain 462-606); Homodimer with swapped cytosolic domains; A ten-fold molar excess of c-di-AMP was added after purification; The construct has a C-terminal HRV-3C protease site; No cleavage is described for the DDM sample; also called KimA WT; …
Regarding B1, the binding result in series [6] is “binds”.

B2: K+/H+ symporter KimA from B. subtilis, reconstituted in amphipols, with bound c-di-AMP (natural protein)
chain: MYHSIKRFLIGKPLKSQAAGEQKLTKLKALAMLSSDALSSVAYGTEQILIILATISAAAFWYSIPIAVGVLILLLALILSYRQIIYAYPQGGGAYIVSKENLGEKPGLIAGGSLLVDYILTVAVSISAGTDAITSAFPALHDYHVPIAIFLVLVIMILNLRGLSESASILAYPVYLFVVALLVLIAVGLFKLMTGQIDQPAHHTSLGTPVAGITLFLLLKAFSSGCSALTGVEAISNAIPAFKNPPARNAARTLAMMGILLAILFSGITVLAYGYGTAPKPDETVVSQIASETFGRNVFYYVIQGVTSLILVLAANTGFSAFPQLAFNLARDQYMPRMFTVRGDRLGFSNGIIFLGFASIVLIILFGGQTEHLIPLYAVGVFIPFTLSQTGMCMKWIKQKPKGWIGKMLINSCGALISFMVLSILFVTKFNVVWPVLIFMPIVVLLFFAIKNHYTAVGEQLRIVDKEPEEIKGTVVIVPVAGVTTVVQKSIHYAKSLSDQVIAVHVSFDREQEKKFEKRWEELNNGVRLVTLHSSYRSLVHPFDKFLETVEAKAKKEQFSVMVLFPQFITKKRWHTILHNQSAFLLRVRLFWKKDIMVATLPYHFKK
notes: KimA, K+/H+ symporter of the KUP family, Bacillus subtilis; expressed from pB24KimA; released from the Ni-NTA beads by cleavage at the C-terminal HRV-3C protease site; Homodimer with swapped cytosolic domains, upright arrangement of the transmembrane domains; Residues of the 3C site probably remain at the C-terminus after cleavage; also called KimA in amphipols; not shown: His tag (from the …)
As for B2, the binding result in series [7] is “binds”.
